Values of other authors in patent publication US20200230141A1, “BI-LAYER PHARMACEUTICAL TABLET FORMULATION” (ViiV Healthcare Company, priority 2017, published 2020).
Read-outs that look alike come from different tables or passages of the source.

Assays:
[1] = not told
[2] = steady state, HIV-1-infected adults
[3] = typical / standard physiologic conditions
[4] = system: HIV-1 strains; conditions: broad range of HIV-1 strains

permeability [1]	Structure (SMILES)	Cmax, geometric mean (% CV) ([2]; 50 mg once daily)	Cmin, geometric mean (% CV) ([2]; 50 mg once daily)	AUC(0-24), geometric mean (% CV) ([2]; 50 mg once daily, population PK (SPRING-1, SPRING-2))	Cmax, geometric mean (% CV) ([2]; 50 mg twice daily)	Cmin, geometric mean (% CV) ([2]; 50 mg twice daily)	AUC(0-24), geometric mean (% CV) ([2]; 50 mg twice daily, population PK (VIKING, VIKING-3))	solubility [3]	potency [4]
highly permeable	Nc1ccn([C@@H]2CS[C@H](CO)O2)c(=O)n1 (single isomer, unassigned) [lamivudine]								
	C[C@@H]1CCO[C@H]2Cn3cc(C(=O)NCc4ccc(F)cc4F)c(=O)c(O)c3C(=O)N12 [Dolutegravir, (4R,12aS)—N-[(2,4-difluorophenyl)methyl]-7-hydroxy-4-methyl-6,8-dioxo-3,4,12,12a-tetrahydro-2H-pyrido[5,6]pyrazino[2,6-b][1,3]oxazine-9-carboxamide]	3.67 (20) mcg/mL	1.11 (46) mcg/mL	53.6 (27) mcg · h/mL	4.15 (29) mcg/mL	2.12 (47) mcg/mL	75.1 (35) mcg · h/mL	slightly soluble	subnanomolar
